Experimental data taken from patent US9642780B2, “Detection and removal of carious dentin tissue” (RLS Global AB, priority 2011, dated 2017).
“Also recorded” adds a separate entry of the source. One block for each compound: values may come before it.

Assays:
[1] = system: carious tissue in caries infected tooth slices; assay: Staining of caries infected tooth slices with colours, then washing with MQ water, NaCl and NaOH; conditions: for staining of the tooth slice after NaCl and NaOH (Day 4): after NaCl 1 M and NaOH 0.5 M over night, visible light, UV or fluorescence microscopy; for kind of binding to carious tissue in infected teeth (conclusion): concluded from staining after NaCl and NaOH washes
Procedure: This experiment aimed to see if the added colours SEEK, Acid red 1, Lucifer Yellow, a combination of Lucifer Yellow and Acid red 1, or 5-(2-2-hydrazinyl-2-oxoethylthio)acetamido)-2-(3-hydroxy-6-oxo-6H-xanthen-9-yl)benzoic acid, Alexa Fluor® 594 and Alexa 350 bind to the surface of caries or not, after excavation down to a clinically caries free denoted surface. Experiments were performed during 4 days.
Whole caries infected tooth was added to an ortho acryl gel, which after hardening was used as a holder prior to sawing (saw of brand Zaw Micro Tone, German). Slices, having a thickness of 150 μm, were left over night in each colour to be tested (Day one). On the second day, the colours were washed out by rinsing the slices with MQ water and the teeth sections were photographed under either a microscope (6.7×; visible light), in UV (no microscope) or under a fluorescence microscope (100×). Thereafter, an aqueous salt solution (NaCl, 1 M) was added to the slices and incubated over night. On the third day the slices were washed with MQ water and thereafter the same detection procedures were used as described above. Finally the tooth slices were exposed to an aqueous solution of NaOH (0.5 M) over night. The washing and detection path were then repeated as described previously (Day 4).

[2] = system: carious dentin tissue of a pre molar tooth; assay: Staining of a pre molar tooth with Alexa 594 and removal with a dentist's drill; conditions: 15-50 mM aqueous solution, drilling and staining repeated several times
Procedure: Carious dentin tissue of a pre molar tooth stained with an aqueous solution of the hydrazine derivative Alexa 594 in a concentration of 15-50 mM was subjected to mechanical treatment by a dentist's drill until no staining could be visually detected. […] The stained surface was subjected to drilling until no staining could be visually detected. A dentist examined the surface visually and with a tactile instrument and concluded that the surface was free of caries. […] Again, drilling of the stained surface took place until no staining could be observed. […] Drilling and staining as described above in this example was repeated several times. […] It was concluded that selective detection and removal of carious dentin tissue using a hydrazine derivative in combination with a dentist's drill was not possible. […] This is in contrast to the successful selective detection and removal of carious dentin tissue using a hydrazine derivative in combination with a chemical means for treatment of carious dentin tissue as described in Example 5.

[3] = system: carious dentin tissue of a pre molar tooth; assay: Staining of a pre molar tooth cavity with Alexa 594 and removal with Carisolv and hand instrument
Procedure: Carious dentin tissue of a pre molar tooth was treated with Carisolv® to obtain a cavity and subsequently stained with an aqueous solution of the hydrazine derivative Alexa 594.
The concentration of the aqueous solution of the hydrazine derivative Alexa 594 was 15-50 mM. […] Carisolv® was added to the cavity and excavation took place with a hand instrument from Mediteam Dental AB to reach a carious free level. […] A dentist performed tactile control of this surface and confirmed that the surface was free of caries. […] The slightly stained surface was subjected to treatment with Carisolv® followed by excavation with a hand instrument. […] It was concluded that a hydrazine derivative such as Alexa 594 can be used in combination with a chemical means for carious dentin tissue such as Carisolv® for selective detection and removal of carious dentin tissue.

carious dentin tissue [4] = assay: Rinsing of carious dentin tissue labelled with a dye
carious dentin tissue [5] = assay: TOF-SIMS of carious dentin tissue treated with Lucifer Yellow
Procedure: FTIR-ATR and TOF-SIMS analyses were performed on a sample group consisting of carious tissue inner most layers selected and estimated with an exactness of a working dentist. Samples were pooled from 4-6 teeth of inner layer of carious tissue (37 mg). The pooled sample was divided into two subgroups where one was exposed to the hydrazine derivate Lucifer Yellow and further analysed with TOF-SIMS and the other only analysed with FTIR-ATR. An aqueous solution of the hydrazine derivate Lucifer Yellow (1.8 mM) was added to the inner layer carious tissue (19 mg) and after 1 hour exposure washed with an aqueous solution of NaOH (0.5 M) and purified water before dried over vacuum. Events prolonged under a couple of hours from extraction to excavation to the drying and milling of the substances. Both FTIR-ATR and TOF-SIMS followed. FTIR-ATR was performed as described in Example 3 above. […] Each sample was attached to double side tape and analysed with a TOF-SIMS instrument (TOF-SIMS IV, CAMECA/IONTOF, GmbH, Germany). Positive secondary ion mass spectra were recorded from different areas of the sample at a size of […] and separated in a mass analyser and next compared with known mass spectra from the Ion Spec application (IonTof, GmbH, Germany, ver. 4.1) linked with the TOF-SIMS instrument. Negative secondary ion mass spectra were also recorded but gave no further information. […]

carious dentin tissue [6] = assay: FTIR of carious dentin tissue treated with Lucifer Yellow; parameters: species or system human
Excerpt: (§1) Extracted permanent human teeth with no previous dental restorations were selected due to their severe carious tissue status and analysed with FTIR within one week after extraction. The outermost part of the carious dental lesions was removed. The remaining dental carious tissue was divided into two layers; one outer layer with discoloured, soft and infected dental carious tissue and one inner layer that was excavated down to the observed uncoloured hard surface of the remaining healthy dentin controlled by tactile procedures.
(§2) Healthy dentin tissue and carious dentin tissue from the innermost layer were collected. This healthy dentin tissue sample and carious dentin tissue sample were then each divided into three samples.
The healthy dentin tissue sample (26 mg) was divided and treated as follows. […] Fluorescence of bounded hydrazine derivate Lucifer Yellow was checked by a UV lamp. […] The third sample, hereinafter denominated sample S3, (7 mg) and the last procedure was treated with NaBH4 (0.5 M in ethanol) and washed with concentrated ethanol to reduce aldehydes and ketones before the addition of an aqueous solution of the hydrazine derivate Lucifer Yellow (13 mM), repeated rinsing with purified water before dried and analysed. […]
(§3) Thus, in total 6 samples (three from the healthy dentin tissue and three from the carious dentin tissue) were analysed with FTIR within one week after extraction. […]

healthy dentin tissue [7] = assay: TOF-SIMS of healthy dentin tissue treated with Lucifer Yellow; conditions: positive mass spectra, treated similar to untreated
healthy dentin tissue [8] = assay: FTIR of healthy dentin tissue treated with Lucifer Yellow; parameters: species or system human; conditions: Lucifer Yellow 13 mM aqueous, overnight, no peak at 1740 cm−1 in any sample
Excerpt: as §1, §2
The healthy dentin tissue sample (26 mg) was divided and treated as follows. […] Fluorescence of bounded hydrazine derivate Lucifer Yellow was checked by a UV lamp. […] The third sample, hereinafter denominated sample S3, (7 mg) and the last procedure was treated with NaBH4 (0.5 M in ethanol) and washed with concentrated ethanol to reduce aldehydes and ketones before the addition of an aqueous solution of the hydrazine derivate Lucifer Yellow (13 mM), repeated rinsing with purified water before dried and analysed.
as §3

Compound: 6-(2-carboxy-5-(hydrazinecarbonyl)phenyl)-1,2,2,10,10,11-hexamethyl-2,10-dihydro-1H-pyrano[3,2-g]diquinoline-11-ium-4,8-diyl)methanesulfonate [Alexa Fluor® 594]
staining of the tooth slice after NaCl and NaOH (Day 4) [1]: still contained colourants | staining of the tooth slice after NaCl and NaOH (Day 4) ([1]; listed as Alexa Fluor 594®): staining | kind of binding to carious tissue in infected teeth (conclusion) [1]: bind irreversibly | staining of the surface after drilling until no staining visible [2]: staining always took place after the drilling had been performed | sensitivity of caries detection compared with tactile control by a dentist [3]: better and more sensitive method for detecting carious dentin tissue than tactile control | staining of the cavity, first staining ([3]; 15-50 mM aqueous solution, cavity obtained with Carisolv): intense dark bluish colour | staining of the surface after second Carisolv treatment and excavation ([3]; final attempt to stain): no staining took place | staining of the surface after first Carisolv treatment and excavation ([3]; surface judged free of caries by dentist's tactile control): very slight staining at the center of the cavity

Compound: NNC(=O)CSCC(=O)Nc1ccc(-c2c3ccc(=O)cc-3oc3cc(O)ccc23)c(C(=O)O)c1 [5-(2-2-hydrazinyl-2-oxoethylthio)acetamido)-2-(3-hydroxy-6-oxo-6H-xanthen-9-yl)benzoic acid]
staining of the tooth slice after NaCl and NaOH (Day 4) [1]: still contained colourants; also recorded: staining | kind of binding to carious tissue in infected teeth (conclusion) [1]: bind irreversibly

Compound: NNC(=O)NN1C(=O)c2cc(S(=O)(=O)O)cc3c(N)c(S(=O)(=O)O)cc(c23)C1=O [Lucifer Yellow]
staining of the tooth slice after NaCl and NaOH (Day 4) [1]: still contained colourants | kind of binding to carious tissue in infected teeth (conclusion) [1]: bind irreversibly | bonding to carious dentin tissue (TOF-SIMS) (carious dentin tissue [5]; Lucifer Yellow 1.8 mM, 1 hour, washed with NaOH 0.5 M, positive spectra, repeated difference of 106 mass units): covalently bound to the carious tissue | selectivity of reaction, carious versus healthy dentin tissue (TOF-SIMS) (carious dentin tissue [5]; concluded from TOF-SIMS spectra): selectively reacts with carious dentin tissue | reaction with carious dentin tissue (carious dentin tissue [6]; FTIR, Lucifer Yellow 13 mM aqueous, overnight, peak at 1740 cm−1 no longer present): reaction has taken place | selectivity of reaction, carious versus healthy dentin tissue (FTIR) (carious dentin tissue [6]; concluded from FTIR of samples S1-S6): selectively reacts with carious dentin tissue | reaction with healthy dentin (TOF-SIMS) (healthy dentin tissue [7]): did not react with healthy dentin | reaction with healthy dentin tissue (healthy dentin tissue [8]): no reaction takes place

Further lines, with some results ahead:

kind of binding to carious tissue in infected teeth (conclusion) [1]: binds in a reversible way
Compound: CC(=O)Nc1cc(S(=O)(=O)[O-])cc2cc(S(=O)(=O)[O-])c(/N=N/c3ccccc3)c(O)c12.[Na+].[Na+] [Acid red 1, reference compound]
staining of the tooth slice after incubation with 1 M NaCl ([1]; 150 μm slices left over night in colour, rinsed with MQ water, NaCl 1 M over night): only little staining remained | staining of the tooth slice after NaCl and NaOH (Day 4) [1]: no colouring of the slice treated with Acid red 1 could be detected using visible light and barely with microscope | effect of rinsing on dye bonded to carious dentin tissue (carious dentin tissue [4]): release of the dye bonded to the carious dentine tissue

kind of binding to carious tissue in infected teeth (conclusion) [1]: bind irreversibly
Compound: Cc1c(CC(=O)NN)c(=O)oc2cc(N)c(S(=O)(=O)O)cc12 [Alexa 350]
staining of the tooth slice after NaCl and NaOH (Day 4) [1]: still contained colourants
